Literature values as cited in patent US20080221049A1, “Free-flowing lyophilized tobramycin formulation” (APP Pharmaceuticals, LLC., priority 2004, published 2008).
Where a name gives a salt, the structure may show the parent alone. Read-outs that look alike come from different tables or passages of the source.

Settings: after reconstitution, e.g. with 30 mL Sterile Water for Injection

time within which the reconstituted solution should be used (stored at room temperature): ≤ 24 h | time within which the reconstituted solution should be used (stored under refrigeration): ≤ 96 h
Structure (SMILES): NCC1OC(OC2C(N)CC(N)C(OC3OC(CO)C(O)C(N)C3O)C2O)C(N)CC1O [Tobramycin sulfate, 0-3-amino-3-deoxy-α-D-glucopyranosyl-(1→4) —O—[2,6-diamino-2,3,6-trideoxy-α-D-ribo-hexopyranosyl-(1→6)]-2-deoxy-L-streptamine, sulfate (2:5)(salt)]
